Measurements published in ChEMBL document CHEMBL1134012, “Synthesis of thiophene-2-carboxamidines containing 2-aminothiazoles and their biological evaluation as urokinase inhibitors” (Bioorg Med Chem Lett, 2001).

Target: Urokinase-type plasminogen activator (Homo sapiens, UniProt P00749)
Assay: In vitro inhibitory activity against Urokinase-type plasminogen activator (microPa)

| Ki | Compound |
| --- | --- |
| 440 nM | CSc1sc(C(=N)N)cc1-c1csc(Nc2cccc(Cl)c2C)n1 |
| 280 nM | COc1cccc(Nc2nc(-c3cc(C(=N)N)sc3SC)cs2)c1 |
| 280 nM | CSc1sc(C(=N)N)cc1-c1csc(Nc2ccc(Cl)cc2C)n1 |
| 1020 nM | CSc1sc(C(=N)N)cc1-c1csc(Nc2cccc(OCC(N)=O)c2)n1 |
| 3900 nM | CSc1sc(C(=N)N)cc1-c1csc(N)n1 |
| 1600 nM | CSc1sc(C(=N)N)cc1-c1csc(NCCN2CCCCC2)n1 |
| 310 nM | CSc1sc(C(=N)N)cc1-c1csc(Nc2ccc(N(C)C)cc2)n1 |
| 280 nM | CSc1sc(C(=N)N)cc1-c1csc(Nc2ccccc2Br)n1 |
| 1180 nM | CSc1sc(C(=N)N)cc1-c1csc(NC(c2ccccc2)c2ccccc2)n1 |
| 1400 nM | CSc1sc(C(=N)N)cc1-c1csc(NCCN2CCOCC2)n1 |
| 1500 nM | CSc1sc(C(=N)N)cc1-c1csc(Nc2c(Cl)cccc2Cl)n1 |
| 110 nM | CSc1sc(C(=N)N)cc1-c1csc(Nc2ccc(Oc3ccc(Cl)cc3)cc2)n1 |
| 6000 nM | N=C(N)c1ccc(CS)s1 |
| 280 nM | CSc1sc(C(=N)N)cc1-c1csc(Nc2cccc(C)c2C)n1 |
| 280 nM | COc1ccc(Nc2nc(-c3cc(C(=N)N)sc3SC)cs2)cc1 |
| 80 nM | Cc1sc(C(=N)N)cc1-c1csc(Nc2ccc(Oc3ccccc3)cc2)n1 |
| 1460 nM | CSc1sc(C(=N)N)cc1-c1csc(Nc2ccccc2Cl)n1 |
| 700 nM | CSc1sc(C(=N)N)cc1-c1csc(Nc2ccccc2C(C)C)n1 |
| 430 nM | CSc1sc(C(=N)N)cc1-c1csc(Nc2ccc(C)cc2Br)n1 |
| 3060 nM | CSc1sc(C(=N)N)cc1-c1csc(N2CCN(c3ccccc3F)CC2)n1 |
| 660 nM | COc1ccc(OC)c(Nc2nc(-c3cc(C(=N)N)sc3SC)cs2)c1 |
| 1620 nM | Cc1sc(C(=N)N)cc1-c1csc(N)n1 |

| Compound | Ki |
| --- | --- |
| CSc1sc(C(=N)N)cc1-c1csc(Nc2ccc(/N=N/c3ccccc3)cc2)n1 | 180 nM |
| CSc1sc(C(=N)N)cc1-c1csc(Nc2ccc(S(=O)(=O)N3CCCCC3)cc2)n1 | 400 nM |
| CSc1sc(C(=N)N)cc1-c1csc(Nc2ccc(OCc3ccccc3)cc2)n1 | 180 nM |
| CSc1sc(C(=N)N)cc1-c1csc(Nc2cccc3ccccc23)n1 | 500 nM |
| CSc1sc(C(=N)N)cc1-c1csc(Nc2ccc(Oc3ccc(C(F)(F)F)cn3)cc2)n1 | 910 nM |
| COc1cc(Nc2nc(-c3cc(C(=N)N)sc3SC)cs2)cc(OC)c1OC | 160 nM |
| CSc1sc(C(=N)N)cc1-c1csc(NCCCc2ccccc2)n1 | 350 nM |
| CSc1sc(C(=N)N)cc1-c1csc(Nc2ccc3c(c2)OCO3)n1 | 520 nM |
| CSc1sc(C(=N)N)cc1-c1csc(NCc2ccc(C)cc2)n1 | 640 nM |
| CSc1sc(C(=N)N)cc1-c1csc(Nc2ccc(Nc3ccccc3)cc2)n1 | 70 nM |
| CSc1sc(C(=N)N)cc1-c1csc(Nc2ccc(Oc3ccccc3)cc2)n1 | 60 nM |
| CSc1sc(C(=N)N)cc1-c1csc(Nc2ccc(Cc3ccccc3)cc2)n1 | 180 nM |
